{"source": "patent US20250171447A1", "about": "“ADENOSINE RECEPTOR ANTAGONISTS, PHARMACEUTICAL COMPOSITIONS AND THEIR USE THEREOF” (Merck Sharp & Dohme LLC, priority 2022, published 2025)"}
{"biological_target": "human A2A adenosine receptor (Homo sapiens (Human), UniProt P29274)", "sequence (P29274 whole entry)": "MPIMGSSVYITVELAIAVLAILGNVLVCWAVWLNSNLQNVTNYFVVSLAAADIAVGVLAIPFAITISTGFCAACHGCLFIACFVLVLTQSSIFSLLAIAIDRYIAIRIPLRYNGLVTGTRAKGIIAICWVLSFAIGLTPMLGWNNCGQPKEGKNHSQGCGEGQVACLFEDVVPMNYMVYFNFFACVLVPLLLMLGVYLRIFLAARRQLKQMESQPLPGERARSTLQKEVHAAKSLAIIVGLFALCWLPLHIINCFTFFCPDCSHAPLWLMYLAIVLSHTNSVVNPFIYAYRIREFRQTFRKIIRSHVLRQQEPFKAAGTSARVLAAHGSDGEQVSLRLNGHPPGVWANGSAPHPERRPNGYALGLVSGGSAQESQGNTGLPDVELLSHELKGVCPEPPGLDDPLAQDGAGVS", "assay": "A2A receptor affinity binding assay (radioligand filtration binding or SPA, [3H]SCH58261)", "details": "membranes from HEK293 or CHO cells expressing human A2A; Method (A) filtration or Method (B) SPA", "units": {"IC50": "nM"}}
{"smiles": "COc1cccc2c1nc(N)n1nc([C@H]3C[C@H](c4ccc(C(N)C(F)F)cn4)C3)nc21", "note": "(stereo partly drawn) [Ex-73, 2-{trans-3-[5-(1-amino-2,2-difluoroethyl)pyridin-2-yl]cyclobutyl}-7-methoxy[1,2,4]triazolo[1,5-c]quinazolin-5-amine]", "IC50": 4.8}
{"smiles": "COc1cccc2c1nc(N)n1nc([C@H]3C[C@@H](c4ncc5c(n4)CCNC5)C3)nc21", "note": "(single isomer, unassigned) [Ex-111, 7-methoxy-2-[(cis)-3-(5,6,7,8-tetrahydropyrido[4,3-d]pyrimidin-2-yl)cyclobutyl][1,2,4]triazolo[1,5-c]quinazolin-5-amine]", "IC50": 117}
{"smiles": "COc1cccc2c1nc(N)n1nc([C@H]3C[C@H](c4ccc(C(N)C(F)(F)F)cc4)C3)nc21", "note": "(stereo partly drawn) [Ex-79, 2-{trans-3-[4-(1-amino-2,2,2-trifluoroethyl)phenyl]cyclobutyl}-7-methoxy[1,2,4]triazolo[1,5-c]quinazolin-5-amine]", "IC50": 2.7}
{"smiles": "COc1cccc2c1nc(N)n1nc([C@H]3C[C@H](c4ncc(C5(O)COC5)cc4C)C3)nc21", "note": "[Ex-120, 3-{6-[trans-3-(5-amino-7-methoxy[1,2,4]triazolo[1,5-c]quinazolin-2-yl)cyclobutyl]-5-methylpyridin-3-yl}oxetan-3-ol]", "IC50": 0.5}
{"smiles": "COc1cccc2c1nc(N)n1nc([C@H]3C[C@@H](c4ccc(C(N)C(F)F)cn4)C3)nc21", "note": "(stereo partly drawn) [Ex-74, 2-{cis-3-[5-(1-amino-2,2-difluoroethyl)pyridin-2-yl]cyclobutyl}-7-methoxy[1,2,4]triazolo[1,5-c]quinazolin-5-amine]", "IC50": 4}
{"smiles": "COc1cccc2c1nc(N)n1nc([C@H]3C[C@H](c4cnc(C(C)(C)N)c(C)n4)C3)nc21", "note": "[Ex-121, 2-((1r,3r)-3-(5-(2-aminopropan-2-yl)-6-methylpyrazin-2-yl)cyclobutyl)-7-methoxy-[1,2,4]triazolo[1,5-c]quinazolin-5-amine]", "IC50": 3.7}
{"smiles": "COc1cccc2c1nc(N)n1nc([C@H]3C[C@H](c4ccc(C5(N)CC(F)(F)C5)cn4)C3)nc21", "note": "[Ex-141]", "IC50": 3.1}
{"smiles": "COc1cccc2c1nc(N)n1nc([C@H]3C[C@@H](c4ccc(C(N)C(F)(F)F)cc4)C3)nc21", "note": "(single isomer, unassigned) [Ex-75, 2-{cis-3-[4-(1-amino-2,2,2-trifluoroethyl)phenyl]cyclobutyl}-7-methoxy[1,2,4]triazolo[1,5-c]quinazolin-5-amine]", "IC50": 0.3}
{"smiles": "COc1cccc2c1nc(N)n1nc([C@H]3C[C@H](c4ccc([C@@]5(C(F)(F)F)CCCCN5)cc4)C3)nc21", "note": "[Ex-100, 7-methoxy-2-(trans-3-{4-[(2R)-2-(trifluoromethyl)piperidin-2-yl]phenyl}cyclobutyl)[1,2,4]triazolo[1,5-c]quinazolin-5-amine]", "IC50": 3.2}
{"smiles": "COc1cccc2c1nc(N)n1nc([C@H]3C[C@H](c4ccc([C@H](N)C(F)F)cn4)C3)nc21", "note": "(single isomer, unassigned) [Ex-104]", "IC50": 2.6}
{"smiles": "COc1cccc2c1nc(N)n1nc([C@H]3C[C@H](c4cnc(CN)nc4)C3)nc21", "note": "[Ex-113, 2-{trans-3-[2-(aminomethyl)pyrimidin-5-yl]cyclobutyl}-7-methoxy[1,2,4]triazolo[1,5-c]quinazolin-5-amine]", "IC50": 2.2}
{"smiles": "COc1cc(F)cc2c1nc(N)n1nc([C@H]3C[C@@H](c4ccc(C(C)(C)O)cc4)C3)nc21", "note": "[Ex-50, 2-{4-[cis-3-(5-amino-9-fluoro-7-methoxy [1,2,4]triazolo [1,5-c]quinazolin-2-yl)cyclobutyl]phenyl} propan-2-ol]", "IC50": 1}
{"smiles": "COc1cccc2c1nc(N)n1nc([C@H]3C[C@H](c4ccc(C(C)(C)N)c(C)n4)C3)nc21", "note": "(single isomer, unassigned) [Ex-117, 2-{trans-3-[5-(2-aminopropan-2-yl)-6-methylpyridin-2-yl]cyclobutyl}-7-methoxy[1,2,4]triazolo[1,5-c]quinazolin-5-amine]", "IC50": 8.1}
{"smiles": "COc1cccc2c1nc(N)n1nc([C@H]3C[C@@H](c4ccc(C5(N)CC(F)(F)C5)cn4)C3)nc21", "note": "[Ex-140, 2-((1s,3s)-3-(5-(1-amino-3,3-difluorocyclobutyl)pyridin-2-yl)cyclobutyl)-7-methoxy-[1,2,4]triazolo[1,5-c]quinazolin-5-amine]", "IC50": 5.4}
{"smiles": "COc1cccc2c1nc(N)n1nc([C@H]3C[C@H](c4ncc5c(n4)CCNC5)C3)nc21", "note": "(single isomer, unassigned) [Ex-110, 7-methoxy-2-[(trans)-3-(5,6,7,8-tetrahydropyrido[4,3-d]pyrimidin-2-yl)cyclobutyl][1,2,4]triazolo[1,5-c]quinazolin-5-amine]", "IC50": 16.7}
{"smiles": "COc1cccc2c1nc(N)n1nc([C@H]3C[C@@H](c4ccc([C@@H](N)C(F)F)cn4)C3)nc21", "note": "(single isomer, unassigned) [Ex-107]", "IC50": 8.2}
{"smiles": "COc1cccc2c1nc(N)n1nc([C@H]3C[C@@H](c4ccc([C@H](N)C(F)(F)F)cn4)C3)nc21", "note": "[Ex-78, 2-(cis-3-{5-[(1S)-1-amino-2,2,2-trifluoroethyl]pyridin-2-yl}cyclobutyl)-7-methoxy[1,2,4]triazolo[1,5-c]quinazolin-5-amine]", "IC50": 1.9}
{"smiles": "COc1cccc2c1nc(N)n1nc([C@H]3C[C@@H](c4ncc(C5(N)COC5)cc4C)C3)nc21", "note": "[Ex-123, 2-{cis-3-[5-(3-aminooxetan-3-yl)-3-methylpyridin-2-yl]cyclobutyl}-7-methoxy[1,2,4]triazolo[1,5-c]quinazolin-5-amine]", "IC50": 1.8}
{"smiles": "COc1cccc2c1nc(N)n1nc([C@H]3C[C@H](c4ncc(C(C)(C)N)nc4C4CC4)C3)nc21", "note": "[Ex-125, 2-((1r,3r)-3-(5-(2-aminopropan-2-yl)-3-cyclopropylpyrazin-2-yl)cyclobutyl)-7-methoxy-[1,2,4]triazolo[1,5-c]quinazolin-5-amine]", "IC50": 2.6}
{"smiles": "Cc1nc(C(C)(C)N)cnc1[C@H]1C[C@@H](c2nc3c4cccc(F)c4nc(N)n3n2)C1", "note": "[Ex-134, 2-{cis-3-[5-(2-aminopropan-2-yl)-3-methylpyrazin-2-yl]cyclobutyl}-7-fluoro[1,2,4]triazolo[1,5-c]quinazolin-5-amine]", "IC50": 148}
{"smiles": "COc1cccc2c1nc(N)n1nc([C@H]3C[C@@H](c4ncc5c(n4)CNC5)C3)nc21", "note": "(single isomer, unassigned) [Ex-109, 2-[(cis)-3-(6,7-dihydro-5H-pyrrolo[3,4-d]pyrimidin-2-yl)cyclobutyl]-7-methoxy[1,2,4]triazolo[1,5-c]quinazolin-5-amine]", "IC50": 86.1}
{"smiles": "COc1cccc2c1nc(N)n1nc([C@H]3C[C@@H](c4cc(C)c(C(C)(C)N)cn4)C3)nc21", "note": "[Ex-80, 2-{cis-3-[5-(2-aminopropan-2-yl)-4-methylpyridin-2-yl]cyclobutyl}-7-methoxy[1,2,4]triazolo[1,5-c]quinazolin-5-amine]", "IC50": 4.5}
{"smiles": "COc1cccc2c1nc(N)n1nc([C@H]3C[C@@H](c4ncc(C(C)(C)N)cc4F)C3)nc21", "note": "[Ex-86, 2-{cis-3-[5-(2-aminopropan-2-yl)-3-fluoropyridin-2-yl]cyclobutyl}-7-methoxy[1,2,4]triazolo[1,5-c]quinazolin-5-amine]", "IC50": 12.7}
{"smiles": "COc1cccc2c1nc(N)n1nc([C@H]3C[C@@H](c4ncc(C(C)(C)N)nc4C)C3)nc21", "note": "[Ex-89, 2-((1s,3s)-3-(5-(2-aminopropan-2-yl)-3-methylpyrazin-2-yl)cyclobutyl)-7-methoxy-[1,2,4]triazolo[1,5-c]quinazolin-5-amine]", "IC50": 27.7}
{"smiles": "COc1cccc2c1nc(N)n1nc([C@H]3C[C@H](c4ccc(N5CCN(C)CC5)nc4)C3)nc21", "note": "[Ex-114, 7-methoxy-2-{trans-3-[6-(4-methylpiperazin-1-yl)pyridin-3-yl]cyclobutyl}[1,2,4]triazolo[1,5-c]quinazolin-5-amine]", "IC50": 1.3}
{"smiles": "COc1cccc2c1nc(N)n1nc([C@H]3C[C@H](c4ccc(C(C)(N)C(F)F)nc4)C3)nc21", "note": "(stereo partly shown) [Ex-92, 2-{(1r,3r)-3-[6-(2-amino-1,1-difluoropropan-2-yl)pyridin-3-yl]cyclobutyl}-7-methoxy[1,2,4]triazolo[1,5-c]quinazolin-5-amine]", "IC50": 14.1}
{"smiles": "COc1cccc2c1nc(N)n1nc([C@H]3C[C@@H](c4ccc(C(N)C(F)(F)F)cc4)C3)nc21", "note": "(single isomer, unassigned) [Ex-76, 2-{cis-3-[4-(1-amino-2,2,2-trifluoroethyl)phenyl]cyclobutyl}-7-methoxy[1,2,4]triazolo[1,5-c]quinazolin-5-amine]", "IC50": 0.5}
{"smiles": "COc1cccc2c1nc(N)n1nc([C@H]3C[C@H](c4cnc(N5CCN[C@H](C)C5)c(C)c4)C3)nc21", "note": "[Ex-102, 7-methoxy-2-(trans-3-{5-methyl-6-[(3R)-3-methylpiperazin-1-yl]pyridin-3-yl}cyclobutyl)[1,2,4]triazolo[1,5-c]quinazolin-5-amine]", "IC50": 1.5}
{"smiles": "COc1cccc2c1nc(N)n1nc([C@H]3C[C@@H](c4ccc([C@@]5(C(F)(F)F)CCCCN5)cc4)C3)nc21", "note": "[Ex-99, 7-methoxy-2-(cis-3-{4-[(2R)-2-(trifluoromethyl)piperidin-2-yl]phenyl}cyclobutyl)[1,2,4]triazolo[1,5-c]quinazolin-5-amine]", "IC50": 0.6}
{"smiles": "COc1cccc2c1nc(N)n1nc([C@H]3C[C@@H](c4ccc([C@@H](N)C(F)(F)F)cn4)C3)nc21", "note": "(single isomer, unassigned) [Ex-94]", "IC50": 3.8}
{"smiles": "COc1cccc2c1nc(N)n1nc([C@H]3C[C@@H](c4ccc([C@H](N)C(F)F)cn4)C3)nc21", "note": "(single isomer, unassigned) [Ex-105]", "IC50": 2.7}
{"smiles": "COc1cccc2c1nc(N)n1nc([C@H]3C[C@H](c4ccc(CN5CCNCC5)cc4)C3)nc21", "note": "[Ex-98, 7-methoxy-2-(trans-3-{4-[(piperazin-1-yl)methyl]phenyl}cyclobutyl)[1,2,4]triazolo[1,5-c]quinazolin-5-amine]", "IC50": 1.6}
{"smiles": "COc1cccc2c1nc(N)n1nc([C@H]3C[C@@H](c4cnc(N5CCN[C@H](C)C5)c(C)c4)C3)nc21", "note": "[Ex-101, 7-methoxy-2-(cis-3-{5-methyl-6-[(3R)-3-methylpiperazin-1-yl]pyridin-3-yl}cyclobutyl)[1,2,4]triazolo[1,5-c]quinazolin-5-amine]", "IC50": 0.7}
{"smiles": "COc1cccc2c1nc(N)n1nc([C@H]3C[C@@H](c4ccc(CN5CCNCC5)cc4)C3)nc21", "note": "[Ex-97, 7-methoxy-2-(cis-3-{4-[(piperazin-1-yl)methyl]phenyl}cyclobutyl)[1,2,4]triazolo[1,5-c]quinazolin-5-amine]", "IC50": 0.3}
